The numbers were not newly measured in publication PMC6328430, “Radiation dosimetry of [^68Ga]PSMA-11 in low-risk prostate cancer patients” (EJNMMI Physics, 2019), which cites them from elsewhere.

Each structure is given as a SMILES string.

The conditions of this data set: cited from earlier work.

Turning to `C[N+](C)(C[18F])CCO` [[^18F]Choline], the Effective dose is 0.01 mSv/MBq.
As to `C[11C](=O)O` [[^11C]Acetate], the Effective dose is recorded as 0.0049 mSv/MBq.
